Results from PubChem BioAssay (NCI).
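Interpolation was linear, between the two tested concentrations surrounding the appropriate level; five concentrations were tested over 48 hours in 96-well plates. Abbreviation: GI50, concentration required for 50% inhibition of growth. TGI: total growth inhibition.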

Key:
Assay in all cases: DTP human tumour cell line panel, 48 h
[1] = tested on: A549 NSCLC
[2] = tested on: HCT-15 colon
[3] = tested on: HOP-62 NSCLC
[4] = tested on: LOX IMVI melanoma
[5] = tested on: M14 melanoma
[6] = tested on: MALME-3M melanoma
[7] = tested on: MDA-MB-231 breast
[8] = tested on: SN12C renal
[9] = tested on: UO-31 renal
[10] = tested on: PC-3 prostate

Compound: CCS/C(Nc1ccccc1)=C(\C#N)C(=O)Nc1ccc(OC)cc1
- GI50 [1]: 5.91 µM
- TGI [1]: > 100 µM
- GI50 [2]: 1.19 µM
- TGI [2]: > 100 µM
- GI50 [3]: 5.62 µM
- TGI [3]: > 100 µM
- GI50 [4]: 6.16 µM
- TGI [4]: > 100 µM
- GI50 [5]: 2.27 µM
- TGI [5]: 87.4 µM
- GI50 [6]: 47.3 µM
- TGI [6]: > 100 µM
- GI50 [7]: 4.14 µM
- TGI [7]: 36.5 µM
- GI50 [8]: 5.91 µM
- TGI [8]: > 100 µM
- GI50 [9]: 5.49 µM
- TGI [9]: > 100 µM

Compound: COc1ccc2c(c1)CC[C@@H]1C2CC[C@]2(C)C(=O)NC(=O)CC12 (stereo partly specified)
- TGI [1]: > 100 µM
- TGI [2]: > 100 µM
- TGI [3]: > 100 µM
- TGI [4]: > 100 µM
- TGI [5]: > 100 µM
- TGI [6]: > 100 µM
- TGI [8]: > 100 µM
- TGI [9]: > 100 µM

Compound: C#Cc1ccc(NC(=O)c2ccc(/C=C/C(=O)c3nccn3C)cc2)cc1
- GI50 [1]: 0.702 µM
- TGI [1]: 5.02 µM
- GI50 [2]: 0.28 µM
- TGI [2]: 1.6 µM
- GI50 [3]: 0.612 µM
- TGI [3]: 1.65 µM
- GI50 [4]: 0.365 µM
- TGI [4]: 0.711 µM
- GI50 [5]: 0.47 µM
- TGI [5]: 0.96 µM
- GI50 [6]: 0.486 µM
- TGI [6]: 1.19 µM
- GI50 [7]: 0.761 µM
- TGI [7]: 2.71 µM
- GI50 [10]: 0.476 µM
- TGI [10]: 1.53 µM
- GI50 [9]: 0.346 µM
- TGI [9]: 0.677 µM

Compound: O=[N+]([O-])c1ccc(Cl)c(C2SCc3nc4ccccc4n32)c1 (stereo unspecified)
- TGI [1]: > 100 µM
- TGI [6]: > 100 µM
- TGI [8]: > 100 µM
- TGI [9]: 66.1 µM

Compound: O=C1C(c2ccccc2)=C(c2ccccc2)C(c2ccc(CCCCCCc3ccc(C4=C(c5ccccc5)C(=O)C(c5ccccc5)=C4c4ccccc4)cc3)cc2)=C1c1ccccc1
- TGI [1]: > 100 µM
- TGI [2]: > 100 µM
- TGI [3]: > 100 µM
- TGI [5]: > 100 µM
- TGI [6]: > 100 µM
- TGI [8]: > 100 µM
- TGI [9]: > 100 µM

Compound: O=c1c([Se]c2coc3ccccc3c2=O)coc2ccccc12
- TGI [1]: 20.9 µM
- TGI [2]: 30.8 µM
- TGI [3]: 21.1 µM
- TGI [4]: 29.5 µM
- TGI [5]: 28.2 µM
- TGI [6]: 31.8 µM
- TGI [8]: 28.2 µM
- TGI [9]: 26.3 µM

Compound: COc1cc(Br)c(CC2=NCCc3cc(OC)c(OC)cc32)cc1OC
- TGI [1]: > 100 µM
- TGI [2]: > 100 µM
- TGI [3]: > 100 µM
- TGI [4]: > 100 µM
- TGI [5]: 65.8 µM
- TGI [6]: > 100 µM
- TGI [8]: > 100 µM
- TGI [9]: 95.1 µM

Compound: COc1ccccc1/C=C\c1cc(OC)c(OC)c(OC)c1
- TGI [1]: > 100 µM
- TGI [2]: > 100 µM
- TGI [3]: > 100 µM
- TGI [4]: > 100 µM
- TGI [5]: > 100 µM
- TGI [6]: > 100 µM
- TGI [8]: > 100 µM
- TGI [9]: 60.4 µM

Compound: O=C1c2cc(CCl)sc2C(=O)c2ccsc21
- TGI [1]: 0.417 µM
- TGI [2]: 1.48 µM
- TGI [4]: 0.149 µM
- TGI [5]: 0.0462 µM
- TGI [6]: 0.0781 µM
- TGI [7]: 0.588 µM
- TGI [10]: 0.839 µM
- TGI [8]: 0.842 µM
- TGI [9]: 0.962 µM

Compound: COc1ccc2c(c1)OC13Oc4cc(OC)ccc4C=C1CCCC3=C2
- GI50 [1]: > 100 µM
- TGI [1]: > 100 µM
- GI50 [2]: > 100 µM
- TGI [2]: > 100 µM
- GI50 [3]: > 100 µM
- TGI [3]: > 100 µM
- GI50 [4]: > 100 µM
- TGI [4]: > 100 µM
- GI50 [5]: > 100 µM
- TGI [5]: > 100 µM
- GI50 [6]: > 100 µM
- TGI [6]: > 100 µM
- GI50 [7]: > 100 µM
- TGI [7]: > 100 µM
- GI50 [10]: > 100 µM
- TGI [10]: > 100 µM
- GI50 [8]: > 100 µM
- TGI [8]: > 100 µM
